Test results taken from patent publication US6943007B2, “Immuno-stimulating polysaccharide substance from Phellinus spp. strain and use thereof” (Korea Institute of Science and Technology, priority 1998, dated 2005).

Legend:
[1] = tested on: B16F10 cutaneous cancer cells; assay: Viability of mice implanted peritoneally with B16F10 cells, immunochemotherapy co-administration (60 days); type: in vivo, mouse; settings: for body weight during the test: all test groups, alone or in combination, 60-day test; for Proportion (%): untreated = 100
From the text: (§1) A homogeneous plantation test system of B16F10 cutaneous cancer cell was utilized for the measurement of the anticancer activity upon co-administration of the polysaccharide substance and adriamycin. The cutaneous cancer cells were implanted in the peritoneal cavity of mice. Adriamycin was peritoneally administrated to the mice for 12 days after tumor implantation while the polysaccharide substance was peritoneally administrated from a week before the implantation to 12 days after the implantation. For 60 days, the viability of the mice was recorded everyday. Adriamycin was used at such low amounts as not to damage the mice.
The cutaneous cancer cells were implanted in the peritoneal cavity of mice. […] For 60 days, the viability of the mice was recorded everyday.
The cutaneous cancer cells were implanted in the peritoneal cavity of mice. […] For 60 days, the viability of the mice was recorded everyday. Cisplastin was used at such low amounts as not to damage the mice.
as §1, with “5-fluoro uracil, as in the above experiments.” for “adriamycin.”, “5-fluoro uracil” for “Adriamycin”

[2] = tested on: NCl-H23 lung cancer cells; assay: Human cancer cells implanted subcutaneously in nude mice; type: in vivo
Procedure: The activity of the polysaccharide substance against human cancer was assayed using NCl-H23, a lung cancer cell line. Nude mice were subcutaneously implanted with NCl-H23 lung cancer cells. The polysaccharide substance and adriamycin were peritoneally administrated to the nude mice for 12 days after cancer cell implantation. The size of a mass of the cancer cells was measured and the cancer cells were separated and weighed on the 19th day after cancer cell implantation. Because the nude mice were devoid of T-cells, their immunological competency was generally attributed to the activity of natural killer cells or macrophage cells. Therefore, the immunological enhancement obtained when administrating the polysaccharide substance was meditated through these two type cells.

[3] = tested on: B16F10 cutaneous cancer cells; assay: Lung metastasis of B16F10 cells implanted in tail veins; type: in vivo, C57BL/6 mice; settings: 14th day
From the text: In order to test the polysaccharide substance for the prevention of cancer metastasis, B16F10 cutaneous cancer cells were implanted in the tail veins of C57BL/6 mice. On the 14th day after implantation, the lungs were isolated from the mice to investigate whether or to what extent cancer metastasis occurred. Adriamycin was peritoneally administrated to the mice for 12 days after tumor implantation while the polysaccharide substance was peritoneally administrated from a week before the implantation to 12 days after the implantation.

[4] = tested on: B16F10 mouse cutaneous cancer cells; assay: Direct cytotoxicity, sulforhodamin B method; type: cell-based; settings: 2nd day after treatment
[5] = tested on: NCl-H23 human lung cancer cells; assay: Direct cytotoxicity, sulforhodamin B method; type: cell-based; settings: 2nd day after treatment
[6] = tested on: B-cells; assay: B-cell antibody-forming cell method; type: cell-based, mice; settings: 10 μg/mL
From the text: A better understanding of the present invention may be obtained through the following examples which are set forth to illustrate, but are not to be construed as the limit of the present invention. In the following examples, splenocytes taken from B6C3F mice were used for the measurement of the immuno-stimulating activity of the polysaccharide substances isolated from Phellinus linteus Yoo and other Phellinus spp. First, the splenocytes were immunized for 2 days by treatment with the substances and lipopolysaccharide as a positive control. The antibodies formed were measured by a spectrophotometer and considered as a standard for the immuno-stimulating activity. The effect of the polysaccharide substance on the proliferation of T-cells was measured by a mixed lymphocyte response technique. To detect the proliferation of lymphocytes, nuclear DNA which was newly synthesized in lymphocytes was measured by using ^3H-thymidine. In this example, B-cells were counted by use of an antibody-forming cell method and the proliferation of T-cells was measured by a mixed lymphocyte response technique. In addition, in order to detect the effect of the polysaccharide substance on the proliferation of lymphocytes, the nuclear DNA which was newly synthesized was measured by using ^3H-thymidine.

With `COc1cccc2c1C(=O)c1c(O)c3c(c(O)c1C2=O)C[C@@](O)(C(=O)CO)C[C@@H]3O[C@H]1C[C@H](N)[C@H](O)[C@H](C)O1` [Adriamycin, adriamycin] the “Nos. of viable mice on the 60th day” value ([1]; Am 0.1 mg/kg) was 0/10, the “Nos. of viable mice on the 60th day” value ([1]; Am 0.3 mg/kg) was 2/10 and the “body weight during the test” value [1] was “did not lose body weight”. For the same compound, the Cell size ([2]; 14th day, Am 1 mg/kg peritoneally for 12 days after implantation) was “Am^2 (1 mg/kg) 12 mm^3”, the “Final Cancer Weight” value ([2]; 19th day after implantation, Adriamycin 1 mg/kg) was 95 and the “body weight of tested mice” value ([2]; nude mice, all test groups) was “did not gain or lose body weight”. For the same compound, the “Nos. of Spots (cancer spots on the lungs)” value ([3]; Adriamycin 1 mg/kg peritoneally for 12 days) was 197, the “Nos. of Spots (cancer spots on the lungs)” value ([3]; Adriamycin 3 mg/kg) was 172 and the “cell quantity (untreated = 100%)” value ([4]; 1 μg/mL) was 29%. The “cell quantity (untreated = 100%)” value ([4]; 3 μg/mL) was 9%, the “cell quantity (untreated = 100%)” value ([4]; 10 μg/ml) was −10% and the “cell quantity (untreated = 100%)” value ([4]; 30 μg/mL) was −10%. For the same compound, the “cell quantity (untreated = 100%)” value ([5]; 1 μg/mL) was 71%, the “cell quantity (untreated = 100%)” value ([5]; 3 μg/mL) was 39% and the “cell quantity (untreated = 100%)” value ([5]; 10 μg/ml) was 7%. The “cell quantity (untreated = 100%)” value ([5]; 30 μg/mL) was −1%.
With `O=c1[nH]cc(F)c(=O)[nH]1` [5-FU, 5-fluoro uracil] the “Nos. of viable mice on the 60th day” value ([1]; 5-FU 1 mg/kg) was 0/10, the “Avg. Viability” value ([1]; 5-FU 1 mg/kg peritoneally for 12 days after implantation) was 33.0 days and the “Nos. of viable mice on the 60th day” value ([1]; 5-FU 3 mg/kg) was 2/10. For the same compound, the “body weight during the test” value [1] was “did not lose body weight”.
For `CO[C@@]12[C@H](COC(N)=O)C3=C(C(=O)C(C)=C(N)C3=O)N1C[C@@H]1N[C@@H]12` [M.C, Mitomycin C], the “Nos. of viable mice on the 60th day” value ([1]; M.C 0.2 mg/kg) was 0/10, the “Avg. Viability” value ([1]; M.C 0.2 mg/kg peritoneally for 12 days after implantation) was 32.5 days and the “Proportion (%)” value ([1]; M.C 0.2 mg/kg) was 179.6%. For the same compound, the “Avg. Viability” value ([1]; M.C 0.6 mg/kg) was 38.0 days, the “Nos. of viable mice on the 60th day” value ([1]; M.C 0.6 mg/kg) was 1/10 and the “Proportion (%)” value ([1]; M.C 0.6 mg/kg) was 209.9%.
With lipopolysaccharide [LPS] the “B-Cell Antibody-forming” value [6] was 0.81 ± 0.23 Abs 576 nm.
For `N.N.[Cl][Pt][Cl]` [C.P, Cisplatin], the “Nos. of viable mice on the 60th day” value ([1]; C.P 0.5 mg/kg) was 0/10, the “Avg. Viability” value ([1]; C.P 0.5 mg/kg peritoneally for 12 days after implantation) was 33.0 days and the “Avg. Viability” value ([1]; C.P 0.5 mg/kg peritoneally for 12 days after implantation, listed as Cisplatin) was 33 days. For the same compound, the “Nos. of viable mice on the 60th day” value ([1]; C.P 1.5 mg/kg) was 2/10.
